For assay [1], the target named is T1, OX1R (Macaca mulatta, UniProt F7FE63).
T1 sequence (F7FE63 1-425): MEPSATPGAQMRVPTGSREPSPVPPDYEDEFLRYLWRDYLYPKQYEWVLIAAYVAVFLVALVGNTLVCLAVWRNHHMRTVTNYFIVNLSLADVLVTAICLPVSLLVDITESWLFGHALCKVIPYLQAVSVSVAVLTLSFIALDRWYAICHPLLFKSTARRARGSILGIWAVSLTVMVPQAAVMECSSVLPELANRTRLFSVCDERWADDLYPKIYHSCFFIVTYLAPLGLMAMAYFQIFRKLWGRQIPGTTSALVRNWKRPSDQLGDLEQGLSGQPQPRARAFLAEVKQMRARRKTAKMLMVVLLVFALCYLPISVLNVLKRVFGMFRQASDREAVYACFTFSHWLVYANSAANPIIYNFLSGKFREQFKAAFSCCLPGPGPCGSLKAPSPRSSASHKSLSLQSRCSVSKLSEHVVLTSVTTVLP
Nature of the assay: Inhibition of orexin-peptide-A-induced calcium mobilization in CHO cells, rhesus OX1R. Type of assay: cell-based, rhesus monkey. On the procedure: (§1) MK-1064 was evaluated for its ability to inhibit orexin-peptide-A-induced calcium mobilization in CHO cell lines separately expressing OX1R and OX2R from mice, rats, rabbits, dogs, rhesus monkeys and humans.
(§2) Binding and functional blockade of OX1R and OX2R with MK-1064 relative to other 2-SORAs and the DORA, MK-6096, were assessed using membranes from Chinese hamster ovary (CHO)-K1 cells (American Type Tissue Collection, Manassas, VA) transfected to express human, mouse, rat, rabbit, dog, or rhesus monkey OX1R or OX2R receptors, as described previously. The kinetics of binding to human OX2R was assessed by radioligand displacement on CHO-K1 cells expressing the receptor. […] The ON rate analysis was performed by presoaking GF/B filters in 0.3% polyethyleneimine (Sigma) using a Skatron 12-well cell harvester and cold buffer at the indicated time points after addition. For OFF rate determination, binding reactions were allowed to proceed to equilibrium and terminated with 1000x [Kd] of unlabeled antagonist and filtered as above at pre-determined time points. Ultima Gold^TM (PerkinElmer 6013327) scintillation cocktail was added to each filter disc and counted on a PerkinElmer TriCarb 2910 scintillation counter. Data were analyzed using GraphPad® Prism v 6.04 (San Diego, CA, USA). The KON rate was determined according to the equation, KON = (KOBS − KOFF)/[ligand].
(In general: Calcium flux is commonly read through the fluorescence of an indicator in the cells.)

The target of assay [2] is T2, OX1R (Mus musculus, UniProt P58307).
T2 construct: expressed in transfected cells; host or cells: CHO-K1
T2 sequence (P58307 1-416): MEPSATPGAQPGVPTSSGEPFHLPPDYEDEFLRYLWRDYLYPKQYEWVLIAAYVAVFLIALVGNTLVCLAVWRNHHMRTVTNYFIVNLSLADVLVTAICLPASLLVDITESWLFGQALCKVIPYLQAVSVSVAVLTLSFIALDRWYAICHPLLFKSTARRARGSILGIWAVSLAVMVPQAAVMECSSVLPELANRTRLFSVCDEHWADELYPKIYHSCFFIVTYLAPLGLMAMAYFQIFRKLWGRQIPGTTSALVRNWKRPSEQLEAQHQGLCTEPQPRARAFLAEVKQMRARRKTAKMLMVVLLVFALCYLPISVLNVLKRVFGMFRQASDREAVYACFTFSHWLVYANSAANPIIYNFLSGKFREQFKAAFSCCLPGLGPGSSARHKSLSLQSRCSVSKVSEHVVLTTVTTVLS
Nature of the assay: Radio-ligand displacement binding, CHO-K1 membranes, mouse OX1R. The note with it: read-out: OX1R affinity (Ki). How it is done:
as §1, §2

In assay [3] the target is T3, OX2R (Macaca mulatta, UniProt F7CZM2).
T3 sequence (F7CZM2 1-444): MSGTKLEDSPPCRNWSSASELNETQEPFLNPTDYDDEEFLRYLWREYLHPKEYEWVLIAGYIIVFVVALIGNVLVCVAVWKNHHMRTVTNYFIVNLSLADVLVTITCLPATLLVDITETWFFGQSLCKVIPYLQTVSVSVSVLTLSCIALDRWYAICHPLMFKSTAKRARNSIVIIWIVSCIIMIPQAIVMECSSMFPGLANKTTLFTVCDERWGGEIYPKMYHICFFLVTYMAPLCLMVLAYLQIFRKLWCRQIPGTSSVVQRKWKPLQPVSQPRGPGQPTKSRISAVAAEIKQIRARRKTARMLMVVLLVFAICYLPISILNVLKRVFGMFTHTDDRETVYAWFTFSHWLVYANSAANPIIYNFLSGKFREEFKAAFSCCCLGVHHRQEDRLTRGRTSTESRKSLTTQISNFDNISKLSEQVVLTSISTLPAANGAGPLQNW
As to the kind of experiment: Inhibition of orexin-peptide-A-induced calcium mobilization in CHO cells, rhesus OX2R. The note with it: for fold OX2R selectivity (Kb): OX1R Kb / OX2R Kb. Type of assay: cell-based, rhesus monkey. On the procedure: as §1, §2

The target in assay [4] is T4, OX1R (Rattus norvegicus, UniProt P56718).
T4 construct: expressed in transfected cells; host or cells: CHO-K1
T4 sequence (P56718 1-416): T2 sequence (P58307 1-416) with Q116H, H205R, I221F, A232G, R245P, G383S
As to the kind of experiment: Inhibition of orexin-peptide-A-induced calcium mobilization in CHO cells, rat OX1R. Type of assay: cell-based. On the procedure:
as §1, §2

Assay [5] has as its target T5, OX2R (Oryctolagus cuniculus, UniProt G1STQ8).
T5 sequence (G1STQ8 1-444): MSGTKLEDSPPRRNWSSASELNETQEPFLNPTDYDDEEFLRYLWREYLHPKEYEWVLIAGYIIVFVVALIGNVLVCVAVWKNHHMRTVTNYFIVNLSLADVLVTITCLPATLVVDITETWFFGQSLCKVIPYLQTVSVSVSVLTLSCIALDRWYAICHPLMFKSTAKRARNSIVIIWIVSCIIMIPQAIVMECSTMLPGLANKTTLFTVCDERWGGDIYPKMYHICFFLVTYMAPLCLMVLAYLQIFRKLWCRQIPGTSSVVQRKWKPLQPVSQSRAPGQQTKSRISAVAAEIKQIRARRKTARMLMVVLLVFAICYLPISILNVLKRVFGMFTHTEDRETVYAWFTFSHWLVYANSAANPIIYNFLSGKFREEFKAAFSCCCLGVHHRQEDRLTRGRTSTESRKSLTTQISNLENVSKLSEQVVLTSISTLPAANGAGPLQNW
Nature of the assay: Inhibition of orexin-peptide-A-induced calcium mobilization in CHO cells, rabbit OX2R. Type of assay: cell-based. Particulars: for fold OX2R selectivity (Kb): OX1R Kb / OX2R Kb. On the procedure: as §1, §2

We go through five compounds from paper PMC4891657, “Orexin 2 Receptor Antagonism is Sufficient to Promote NREM and REM Sleep from Mouse to Man” (Scientific Reports, 2016).

Numbering of substitutions follows the chain as printed.

For the compound `COc1ccc(CNC(=O)c2cc(-c3cncc(C)c3)ncc2-c2nccs2)nc1OC` [MK-3697], the Kb at OX1R [1] stood at 21400 nM; on OX2R [3], 20 nM; on OX1R [4], 36400 nM; at OX2R [5], 27 nM. The Ki (usually the equilibrium dissociation constant of an inhibitor or competing ligand from its target) on OX1R [2] was determined as 3950 nM.

As for `COc1ccc(CNC(=O)c2cc(-c3cc(Cl)cc(Cl)c3)cnc2-c2cccnc2)cc1OC` [2-SORA-18], the Kb on OX1R [1] came to 141 nM; at OX2R [3], 23 nM; on OX1R [4], 1050 nM; at OX2R [5], 30 nM. Also, the Ki on OX1R [2] was found to be 98 nM. Further, the “fold OX2R selectivity (Kb)” value was “[6] fold” at OX2R [3] and “[17] fold” on OX2R [5].

With `COc1ccc(CNC(=O)c2cc(-c3cncc(Cl)c3)cnc2-c2ccccn2)nc1OC` [MK-1064, 5″-chloro-N-[(5,6-dimethoxypyridin-2-yl)methyl]-2,2′:5′, 3″-terpyridine-3′-carbo xamide], the Kb at OX1R [1] was 3370 nM; at OX2R [3] it was 9 nM; at OX1R [4], 7970 nM; at OX2R [5], 10 nM. Further, the Ki at OX1R [2] amounted to 1160 nM. In addition, the “fold OX2R selectivity (Kb)” value is “[375] fold” at OX2R [3] and “[737] fold” at OX2R [5].

As to `COc1ccc(CNC(=O)c2cc(-c3cncc(C)c3)ncc2-c2ccccc2)nc1OC` [2-SORA-7], the Kb at OX1R [1] was determined as 3650 nM; at OX2R [3] it was 18 nM; on OX1R [4] it was 58300 nM; at OX2R [5] it was 22 nM. Moreover, the Ki on OX1R [2] was 1690 nM. Also, the “fold OX2R selectivity (Kb)” value on OX2R [3] was “[203] fold”; on OX2R [5] it was “[764] fold”.

Turning to `Cc1ccc(-c2ncccn2)c(C(=O)N2C[C@H](COc3ccc(F)cn3)CC[C@H]2C)c1` [MK-6096], the Kb worked out at 21 nM at OX1R [1], 14 nM at OX2R [3], 10 nM on OX1R [4] and 16 nM on OX2R [5]. The Ki at OX1R [2] came out at 2.9 nM. Also, the “fold OX2R selectivity (Kb)” value on OX2R [3] was “[1.5] fold”; on OX2R [5], “[0.8] fold”.
